Reference: publication PMC7822874, “Chemoprotective antimalarials identified through quantitative high-throughput screening of Plasmodium blood and liver stage parasites” (Scientific Reports, 2021)
Where two headings read alike, the source gives them in different places.

Columns and labels:
[1] = system: P. falciparum Dd2 Cytb G131S; test: SYBR Green ABS proliferation assay, NCGC00374598 selected clone C11; format: cell-based, Plasmodium falciparum; conditions: Plasmodium falciparum
Description: (§1) As resistance selection studies implicated the parasite cytochrome bc1 complex in mediating reduced parasite susceptibility to both NCGC00473217 and NCGC00374598, we leveraged these drug-selected parasites to test for altered drug response to a panel of antimalarial compounds.
(§2) The P. falciparum parasite Dd2 line was cultured in vitro using standard conditions. […] Tissue culture flasks and assay plates were incubated at 37 °C under a gas mixture of 5% CO2, 5% O2 and 90% N2. […] Significant differences were assessed using two-sided Student’s t-tests. All HTS assays were stopped and read at 72 h. Percent response values represent relative growth as judged by SYBR Green-I fluorescence intensity values normalized to controls.
(§3) Fresh uninfected RBCs (0.5% hematocrit) were added on day 7 and media was changed every other day. […] Resistant parasites were maintained under drug media at a volume of 50 mL until a high parasitemia (> 5%) was achieved. Aliquots of the bulk resistant cultures were frozen in cryovials before cloning by limiting dilution in 96-well plates (seeded at 0.25 or 0.5 parasites/well)[70]. After 3 weeks of cloning, we screened for positive wells by flow cytometry with SYBR Green-stained cells. […] Parasites were harvested by saponin lysis at the trophozoite stage and genomic DNA was extracted using the QIAamp DNA Blood Midi Kit (Qiagen, Germantown, MD)[71].

[2] = system: P. falciparum Dd2 Cytb V259L; test: SYBR Green ABS proliferation assay, NCGC00473217 selected clone F06; format: cell-based, Plasmodium falciparum; conditions: Plasmodium falciparum
Description: as §1, §2, §3

[3] = system: P. falciparum Dd2 Cytb A122D; test: SYBR Green ABS proliferation assay, NCGC00473217 selected clone F12; format: cell-based, Plasmodium falciparum; conditions: Plasmodium falciparum
Description: as §1, §2, §3

[4] = system: HepG2-A16-CD81EGFP cells
[5] = system: P. berghei-ANKA-GFP-LucCON liver stage parasites in HepG2-A16-CD81EGFP cells; test: P. berghei liver stage Pb-Luc assay, Method 1 (UCSD, 1536-well); format: cell-based, Plasmodium berghei; conditions: Plasmodium berghei, 48 h, average of 2 wells on a 1536 well plate; for activity at 1 µM: 1 uM (compounds provided at 10 mM); for activity at 3 µM: 3 uM (compounds provided at 10 mM)
[6] = in vitro; conditions: human, HepG2-A16-CD81EGFP cells, uninfected
[7] = in vitro; conditions: human, hepg2 cells
[8] = system: Plasmodium falciparum Dd2 asexual blood stage parasites; test: microbe, parasite or virus in culture; set-up: species or system Plasmodium falciparum Dd2 in human erythrocytes; single determination (one 11-point concentration-response curve); conditions: Plasmodium falciparum, DD2, Erythrocyte, 72 h; read-out: AC50
[9] = system: HepG2; conditions: human, hepg2 cells, 48 h
[10] = system: luciferase-expressing P. berghei liver stage parasites in HepG2 cells; test: Inhibition of liver-stage development assay (ILSDA), Method 2 (WRAIR, 96-well); format: cell-based, Plasmodium berghei; conditions: for Max Resp (signal direction of the dose response): Method 2, Decrease = decreasing P. berghei viability with dose, Increase = increasing signal, Inactive = no dose response; for AC50: Plasmodium berghei, HepG2, Method 2
[11] = system: P. falciparum Dd2 (clone B2) asexual blood stage parasites; test: P. falciparum Dd2 asexual blood stage SYBR Green-I 72 h proliferation assay (qHTS); format: cell-based, Plasmodium falciparum; conditions: Plasmodium falciparum, DD2, Dd2 parental; Hill fit, averaged from three independent replicates; top concentration 29 µM; read-out: Average AC50 (Log[M]), Dd2 (converted)
[12] = DD2, […], averaged from three independent replicates, top concentration 29 µM, read-out: Average AC50 (Log[M]), NCGC00374598 clone C11 (Cytb G131S) (converted)
[13] = DD2, […], averaged from three independent replicates, top concentration 29 µM, read-out: Average AC50 (Log[M]), NCGC00473217 clone F12 (Cytb A122D) (converted)
[14] = Hill fit, 50% of maximum activity response, read-out: AC50
[15] = log10 of molar AC50 from Hill fit, read-out: Log AC50 (converted)
[16] = DD2, cytochrome b mutant line, fourth value triple, c12, […], read-out: log AC50, mean (converted)

CCCN1C(CC(C)C)=N[S+](=O)([O-])c2cc(NC(=O)c3ccc(C(F)(F)F)cc3)ccc21 [NCGC00531759-01]
AC50 [1, 12]: 2.52e-06 M | AC50 ([2]; DD2, […], averaged from three independent replicates, top concentration 29 µM, read-out: Average AC50 (Log[M]), NCGC00473217 clone F06 (Cytb V259L) (converted)): 8.93e-07 M | AC50 [3, 13]: 8.93e-10 M

CCO.Nc1nc(N)c2cc(Sc3ccc4ccccc4c3)ccc2n1 [MLS000757047-01]
HepG2 viability, % of control, higher concentration, second repeat [4]: 96% | HepG2 viability, % of control, lower concentration, second repeat [4]: 99% | activity at 1 µM ([5]; column 11, read-out: Pb-Luc (P. berghei liver stage), % of control, lower concentration, first repeat): 12% | activity at 1 µM ([5]; column 12, read-out: Pb-Luc (P. berghei liver stage), % of control, lower concentration, second repeat): 12% | activity at 3 µM ([5]; column 8, read-out: Pb-Luc (P. berghei liver stage), % of control, higher concentration, first repeat): 11% | activity at 3 µM ([5]; column 9, read-out: Pb-Luc (P. berghei liver stage), % of control, higher concentration, second repeat): 10% | viability at 48 h, 1 µM [6]: 103% | viability at 48 h, 3 µM [6]: 93% | CC50 at 48 h [7]: 27.3 µM | AC50 [8]: 1330 nM | Log AC50 (M) [9]: -4.5643 M | Max Resp (signal direction of the dose response) [10]: Decrease | AC50 [10, 14]: 2240 nM | AC50 [10, 15]: 2240 nM

CN1C(CSCC(F)(F)F)Nc2cc(Cl)c(S(N)(=O)=O)cc2S1(=O)=O (stereo not shown) [NCGC00182076-03]
AC50 [1, 12]: 3.56e-06 M | AC50 [11]: 2.82e-06 M | AC50 [3, 13]: 1e-08 M

CC(C)CC1=N[S+](=O)([O-])c2cc(NC(=O)c3ccc(F)cc3)ccc2N1 [NCGC00532402-01]
AC50 ([2]; DD2, cytochrome b mutant line, third value triple, c9, […], read-out: log AC50, mean (converted)): 3.99e-07 M | AC50 [3, 16]: 1.12e-06 M

CC(C)CC1=N[S+](=O)([O-])c2cc(NC(=O)c3ccc(F)s3)ccc2N1C [NCGC00651708-01]
AC50 ([1]; DD2, cytochrome b mutant line, second value triple, c6, […], read-out: log AC50, mean (converted)): 2.99e-06 M | AC50 [3, 16]: 2.11e-06 M

O=C1c2ccccc2C2=Nc3ccccc3SC(c3ccc(Cl)cc3)C12 (stereo not shown) [MLS000566883-01]
viability at 48 h, 1 µM [6]: 90% | viability at 48 h, 3 µM [6]: 85% | CC50 at 48 h [7]: 43.2 µM | AC50 [8]: 2660 nM | Log AC50 (M) [9]: -4.3643 M | Max Resp (signal direction of the dose response) [10]: Decrease | AC50 [10, 14]: 3980 nM | AC50 [10, 15]: 3980 nM

c1ccc(Nc2nc(NCc3ccco3)c3ccccc3n2)cc1 [MLS000767881-01]
viability at 48 h, 1 µM [6]: 94% | viability at 48 h, 3 µM [6]: 80% | CC50 at 48 h [7]: 43.2 µM | AC50 [8]: 1680 nM | Log AC50 (M) [9]: -4.3643 M | Max Resp (signal direction of the dose response) [10]: Decrease | AC50 [10, 14]: 2240 nM | AC50 [10, 15]: 2240 nM
